Key:
[1] = biological target: ALK tyrosine kinase receptor (Homo sapiens) (UniProt Q9UM73); assay: Inhibition of ALK at 10 uM
[2] = biological target: AMP-activated protein kinase, AMPK (Homo sapiens) (UniProt P54646+O43741+P54619+Q9UGJ0+Q9Y478+Q13131+Q9UGI9); assay: Inhibition of AMPKalpha2/beta1/gamma1 at 10 uM; type: protein-complex assay
[3] = biological target: Ephrin type-A receptor 6 (Homo sapiens) (UniProt Q9UF33); assay: Inhibition of EPHA6 at 10 uM
[4] = biological target: Mitogen-activated protein kinase 7 (Homo sapiens) (UniProt Q13164); assay: Inhibition of Erk5 at 10 uM
[5] = Inhibition of p70S6K at 10 uM
[6] = biological target: Receptor-type tyrosine-protein kinase FLT3 (Homo sapiens) (UniProt P36888); assay: Inhibition of FLT3 at 10 uM
[7] = test system: Tyrosine-protein kinase ABL1 (Homo sapiens), P00519 [T315I]; assay: Inhibition of ABL T315I mutant at 10 uM
[8] = biological target: Dual specificity mitogen-activated protein kinase kinase 6 (Homo sapiens) (UniProt P52564); assay: Inhibition of MAP2K6 at 10 uM
[9] = test system: Epidermal growth factor receptor (Homo sapiens), P00533 [T790M]; assay: Inhibition of EGFR T790M mutant at 10 uM; type: protein assay
[10] = biological target: Serine/threonine-protein kinase Sgk2 (Homo sapiens) (UniProt Q9HBY8); assay: Inhibition of SGK2 at 10 uM
[11] = biological target: Mitogen-activated protein kinase 14 (Homo sapiens) (UniProt Q16539); assay: Inhibition of p38alpha at 10 uM
[12] = biological target: SRSF protein kinase 2 (Homo sapiens) (UniProt P78362); assay: Inhibition of SRPK2 at 10 uM
[13] = biological target: Serine/threonine-protein kinase NIM1 (Homo sapiens) (UniProt Q8IY84); assay: Inhibition of NIM1 at 10 uM
[14] = biological target: cAMP-dependent protein kinase catalytic subunit alpha (Homo sapiens) (UniProt P17612); assay: Inhibition of PKACa at 10 uM
[15] = biological target: Serine/threonine-protein kinase Nek6 (Homo sapiens) (UniProt Q9HC98); assay: Inhibition of NEK6 at 10 uM
[16] = biological target: Lymphokine-activated killer T-cell-originated protein kinase (Homo sapiens) (UniProt Q96KB5); assay: Inhibition of PBK at 10 uM
[17] = test system: Epidermal growth factor receptor (Homo sapiens), P00533 [L858R]; assay: Inhibition of EGFR L858R mutant at 10 uM; type: protein assay
[18] = biological target: Dual specificity mitogen-activated protein kinase kinase 7 (Homo sapiens) (UniProt O14733); assay: Inhibition of MAP2K7 at 10 uM
[19] = biological target: Epidermal growth factor receptor (Homo sapiens) (UniProt P00533); assay: Inhibition of EGFR at 10 uM
[20] = biological target: Tyrosine-protein kinase JAK2 (Homo sapiens) (UniProt O60674); assay: Inhibition of JAK2 at 10 uM
[21] = biological target: Macrophage-stimulating protein receptor (Homo sapiens) (UniProt Q04912); assay: Inhibition of RON at 10 uM
[22] = biological target: Dual specificity tyrosine-phosphorylation-regulated kinase 2 (Homo sapiens) (UniProt Q92630); assay: Inhibition of DYRK2 at 10 uM
[23] = biological target: Ephrin type-B receptor 4 (Homo sapiens) (UniProt P54760); assay: Inhibition of EPHB4 at 10 uM
[24] = biological target: STE20-like serine/threonine-protein kinase (Homo sapiens) (UniProt Q9H2G2); assay: Inhibition of SLK at 10 uM
[25] = biological target: Platelet-derived growth factor receptor alpha (Homo sapiens) (UniProt P16234); assay: Inhibition of PDGFRa at 10 uM
[26] = biological target: BDNF/NT-3 growth factors receptor (Homo sapiens) (UniProt Q16620); assay: Inhibition of TRKB at 10 uM
[27] = biological target: Glycogen synthase kinase-3 beta (Homo sapiens) (UniProt P49841); assay: Inhibition of GSK3b at 10 uM
[28] = biological target: Serine/threonine-protein kinase Nek4 (Homo sapiens) (UniProt P51957); assay: Inhibition of NEK4 at 10 uM
[29] = test system: Proto-oncogene tyrosine-protein kinase receptor Ret (Homo sapiens), P07949 [M918T]; assay: Inhibition of RET M918T mutant at 10 uM
[30] = biological target: Serine/threonine-protein kinase SIK2 (Homo sapiens) (UniProt Q9H0K1); assay: Inhibition of QIK at 10 uM
[31] = biological target: Mitogen-activated protein kinase 8 (Homo sapiens) (UniProt P45983); assay: Inhibition of JNK1 at 10 uM
[32] = biological target: Receptor tyrosine-protein kinase erbB-4 (Homo sapiens) (UniProt Q15303); assay: Inhibition of HER4 at 10 uM
[33] = biological target: Casein kinase II alpha/beta (Homo sapiens) (UniProt P67870+P68400); assay: Inhibition of CK2a1/b at 10 uM; type: protein-complex assay
[34] = test system: Fibroblast growth factor receptor 3 (Homo sapiens), P22607 [K650E]; assay: Inhibition of FGFR3 K650E mutant at 10 uM
[35] = biological target: Mitogen-activated protein kinase 13 (Homo sapiens) (UniProt O15264); assay: Inhibition of p38delta at 10 uM
[36] = biological target: Tyrosine-protein kinase TXK (Homo sapiens) (UniProt P42681); assay: Inhibition of TXK at 10 uM
[37] = biological target: Serine/threonine-protein kinase Sgk3 (Homo sapiens) (UniProt Q96BR1); assay: Inhibition of SGK3 at 10 uM
[38] = biological target: Serine/threonine-protein kinase MARK1 (Homo sapiens) (UniProt Q9P0L2); assay: Inhibition of MARK1 at 10 uM
[39] = biological target: 3-phosphoinositide-dependent protein kinase 1 (Homo sapiens) (UniProt O15530); assay: Inhibition of PDK1 at 10 uM
[40] = biological target: Ephrin type-A receptor 8 (Homo sapiens) (UniProt P29322); assay: Inhibition of EPHA8 at 10 uM
[41] = biological target: Mitogen-activated protein kinase kinase kinase 3 (Homo sapiens) (UniProt Q99759); assay: Inhibition of MAP3K3 at 10 uM
[42] = biological target: Phosphorylase b kinase gamma catalytic chain, skeletal muscle/heart isoform (Homo sapiens) (UniProt Q16816); assay: Inhibition of PHKG1 at 10 uM
[43] = biological target: SRSF protein kinase 3 (Homo sapiens) (UniProt Q9UPE1); assay: Inhibition of MSSK1 (SRPK3) at 10 uM
[44] = biological target: Mitogen-activated protein kinase kinase kinase 5 (Homo sapiens) (UniProt Q99683); assay: Inhibition of MAP3K5 at 10 uM
[45] = test system: Platelet-derived growth factor receptor alpha (Homo sapiens), P16234 [V561D]; assay: Inhibition of PDGFRa V561D mutant at 10 uM
[46] = biological target: Mitogen-activated protein kinase 1 (Homo sapiens) (UniProt P28482); assay: Inhibition of Erk2 at 10 uM

Sequence of Serine/threonine-protein kinase Nek6 (Homo sapiens) (Q9HC98 whole entry): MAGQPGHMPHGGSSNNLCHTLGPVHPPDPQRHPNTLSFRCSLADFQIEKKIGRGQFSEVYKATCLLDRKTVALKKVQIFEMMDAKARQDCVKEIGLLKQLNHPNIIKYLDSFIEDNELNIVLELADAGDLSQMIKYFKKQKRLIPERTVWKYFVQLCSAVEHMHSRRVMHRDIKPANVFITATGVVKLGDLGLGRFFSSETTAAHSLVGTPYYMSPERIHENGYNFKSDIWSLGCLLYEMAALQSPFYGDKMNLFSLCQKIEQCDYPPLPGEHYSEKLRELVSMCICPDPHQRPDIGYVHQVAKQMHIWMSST
Sequence of Serine/threonine-protein kinase Nek4 (Homo sapiens) (P51957 whole entry, looked up): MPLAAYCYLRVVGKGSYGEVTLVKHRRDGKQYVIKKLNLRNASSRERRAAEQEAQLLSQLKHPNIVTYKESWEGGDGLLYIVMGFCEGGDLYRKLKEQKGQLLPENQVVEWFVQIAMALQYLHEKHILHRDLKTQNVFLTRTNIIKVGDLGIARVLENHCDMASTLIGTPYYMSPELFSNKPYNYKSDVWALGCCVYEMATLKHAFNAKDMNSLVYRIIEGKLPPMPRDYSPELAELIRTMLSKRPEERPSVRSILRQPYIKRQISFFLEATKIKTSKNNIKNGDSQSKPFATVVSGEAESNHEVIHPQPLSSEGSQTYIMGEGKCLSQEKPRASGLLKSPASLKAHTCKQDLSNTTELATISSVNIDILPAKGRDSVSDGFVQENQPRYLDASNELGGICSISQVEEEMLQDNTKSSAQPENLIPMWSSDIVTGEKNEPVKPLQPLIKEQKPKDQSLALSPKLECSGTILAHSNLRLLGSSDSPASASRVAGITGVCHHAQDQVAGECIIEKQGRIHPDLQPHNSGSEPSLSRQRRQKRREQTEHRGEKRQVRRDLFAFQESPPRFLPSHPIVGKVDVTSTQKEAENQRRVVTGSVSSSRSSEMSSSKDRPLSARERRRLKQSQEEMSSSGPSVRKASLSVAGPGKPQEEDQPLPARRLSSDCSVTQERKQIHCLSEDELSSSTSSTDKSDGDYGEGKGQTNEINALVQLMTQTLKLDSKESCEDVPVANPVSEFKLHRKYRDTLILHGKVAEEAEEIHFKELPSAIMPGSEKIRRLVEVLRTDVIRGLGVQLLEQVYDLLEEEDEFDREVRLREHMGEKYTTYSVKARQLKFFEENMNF
Sequence of Receptor tyrosine-protein kinase erbB-4 (Homo sapiens) (Q15303 whole entry): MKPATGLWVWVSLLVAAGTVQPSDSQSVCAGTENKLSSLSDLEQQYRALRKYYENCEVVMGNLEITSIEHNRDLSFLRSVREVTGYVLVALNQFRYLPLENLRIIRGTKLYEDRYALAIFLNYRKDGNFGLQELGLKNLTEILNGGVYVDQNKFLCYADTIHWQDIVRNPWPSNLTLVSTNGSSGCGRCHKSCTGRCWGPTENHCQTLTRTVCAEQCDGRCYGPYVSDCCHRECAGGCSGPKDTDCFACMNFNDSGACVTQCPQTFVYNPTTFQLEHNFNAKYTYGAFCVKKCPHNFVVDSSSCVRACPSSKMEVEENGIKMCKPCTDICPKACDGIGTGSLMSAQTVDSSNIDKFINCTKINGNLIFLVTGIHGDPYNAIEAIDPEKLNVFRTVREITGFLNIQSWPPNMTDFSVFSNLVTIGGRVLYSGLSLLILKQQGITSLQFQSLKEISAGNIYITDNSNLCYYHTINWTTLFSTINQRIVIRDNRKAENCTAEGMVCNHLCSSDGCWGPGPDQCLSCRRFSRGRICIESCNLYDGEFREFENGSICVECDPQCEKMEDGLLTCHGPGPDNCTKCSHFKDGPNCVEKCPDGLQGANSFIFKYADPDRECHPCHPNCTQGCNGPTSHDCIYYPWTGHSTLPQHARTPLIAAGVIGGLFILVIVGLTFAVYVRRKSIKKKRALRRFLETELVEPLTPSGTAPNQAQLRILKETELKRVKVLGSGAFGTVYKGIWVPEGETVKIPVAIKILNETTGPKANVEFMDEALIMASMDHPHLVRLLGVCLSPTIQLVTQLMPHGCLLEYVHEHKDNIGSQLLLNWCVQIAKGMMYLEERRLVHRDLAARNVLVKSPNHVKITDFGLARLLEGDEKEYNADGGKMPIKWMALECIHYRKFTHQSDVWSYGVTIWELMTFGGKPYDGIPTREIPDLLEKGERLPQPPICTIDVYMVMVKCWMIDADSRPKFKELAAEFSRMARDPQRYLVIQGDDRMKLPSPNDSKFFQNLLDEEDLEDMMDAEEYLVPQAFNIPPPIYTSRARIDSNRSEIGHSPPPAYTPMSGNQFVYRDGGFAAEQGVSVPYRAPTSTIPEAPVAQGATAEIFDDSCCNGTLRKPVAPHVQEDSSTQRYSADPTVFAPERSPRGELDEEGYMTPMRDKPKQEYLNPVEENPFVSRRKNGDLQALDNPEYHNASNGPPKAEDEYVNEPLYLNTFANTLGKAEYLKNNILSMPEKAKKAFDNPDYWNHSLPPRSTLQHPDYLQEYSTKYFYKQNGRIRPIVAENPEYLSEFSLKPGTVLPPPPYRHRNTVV
Sequence of ALK tyrosine kinase receptor (Homo sapiens) (Q9UM73 19-1620 limits assumed): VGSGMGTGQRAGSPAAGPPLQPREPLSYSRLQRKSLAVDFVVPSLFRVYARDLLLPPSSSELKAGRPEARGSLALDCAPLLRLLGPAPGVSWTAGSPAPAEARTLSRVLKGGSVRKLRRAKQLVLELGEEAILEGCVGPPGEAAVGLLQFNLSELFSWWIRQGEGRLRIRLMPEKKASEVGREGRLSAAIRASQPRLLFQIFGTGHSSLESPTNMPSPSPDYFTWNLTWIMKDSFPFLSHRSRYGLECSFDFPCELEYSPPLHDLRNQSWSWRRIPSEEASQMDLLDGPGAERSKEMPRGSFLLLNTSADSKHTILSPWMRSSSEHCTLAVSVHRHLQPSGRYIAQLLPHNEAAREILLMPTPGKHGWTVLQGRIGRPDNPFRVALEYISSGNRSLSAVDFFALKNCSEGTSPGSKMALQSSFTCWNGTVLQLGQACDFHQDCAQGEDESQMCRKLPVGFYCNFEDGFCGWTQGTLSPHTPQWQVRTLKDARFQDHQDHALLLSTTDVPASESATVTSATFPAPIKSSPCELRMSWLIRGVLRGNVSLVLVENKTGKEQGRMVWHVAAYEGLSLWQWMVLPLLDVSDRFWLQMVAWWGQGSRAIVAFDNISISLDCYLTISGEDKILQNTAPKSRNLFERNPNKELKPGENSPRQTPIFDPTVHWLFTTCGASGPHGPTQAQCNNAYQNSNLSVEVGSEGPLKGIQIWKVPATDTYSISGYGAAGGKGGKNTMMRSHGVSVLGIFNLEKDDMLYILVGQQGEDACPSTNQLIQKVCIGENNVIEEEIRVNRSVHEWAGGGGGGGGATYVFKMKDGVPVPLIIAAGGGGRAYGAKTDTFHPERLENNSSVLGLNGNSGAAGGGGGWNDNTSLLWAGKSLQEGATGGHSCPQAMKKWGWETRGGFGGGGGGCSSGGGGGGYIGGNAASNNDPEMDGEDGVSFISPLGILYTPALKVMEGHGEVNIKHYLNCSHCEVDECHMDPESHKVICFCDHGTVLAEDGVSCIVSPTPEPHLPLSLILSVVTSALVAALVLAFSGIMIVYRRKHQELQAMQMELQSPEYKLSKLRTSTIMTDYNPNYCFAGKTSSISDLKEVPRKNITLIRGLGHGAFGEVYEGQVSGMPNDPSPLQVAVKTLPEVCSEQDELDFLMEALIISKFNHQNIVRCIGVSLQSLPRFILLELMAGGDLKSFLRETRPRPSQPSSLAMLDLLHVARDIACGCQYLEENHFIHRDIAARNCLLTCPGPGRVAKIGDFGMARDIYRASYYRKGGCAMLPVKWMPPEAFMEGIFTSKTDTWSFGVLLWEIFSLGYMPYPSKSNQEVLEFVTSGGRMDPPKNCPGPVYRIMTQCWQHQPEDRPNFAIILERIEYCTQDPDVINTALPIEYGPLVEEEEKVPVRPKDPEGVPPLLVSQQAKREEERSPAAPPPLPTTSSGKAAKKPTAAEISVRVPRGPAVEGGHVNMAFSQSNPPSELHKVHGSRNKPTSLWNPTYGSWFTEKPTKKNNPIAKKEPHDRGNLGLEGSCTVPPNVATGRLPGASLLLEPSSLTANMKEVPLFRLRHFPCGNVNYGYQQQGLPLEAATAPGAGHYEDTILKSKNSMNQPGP
Sequence of Fibroblast growth factor receptor 3 (Homo sapiens), P22607 [K650E] (P22607 whole entry K650E): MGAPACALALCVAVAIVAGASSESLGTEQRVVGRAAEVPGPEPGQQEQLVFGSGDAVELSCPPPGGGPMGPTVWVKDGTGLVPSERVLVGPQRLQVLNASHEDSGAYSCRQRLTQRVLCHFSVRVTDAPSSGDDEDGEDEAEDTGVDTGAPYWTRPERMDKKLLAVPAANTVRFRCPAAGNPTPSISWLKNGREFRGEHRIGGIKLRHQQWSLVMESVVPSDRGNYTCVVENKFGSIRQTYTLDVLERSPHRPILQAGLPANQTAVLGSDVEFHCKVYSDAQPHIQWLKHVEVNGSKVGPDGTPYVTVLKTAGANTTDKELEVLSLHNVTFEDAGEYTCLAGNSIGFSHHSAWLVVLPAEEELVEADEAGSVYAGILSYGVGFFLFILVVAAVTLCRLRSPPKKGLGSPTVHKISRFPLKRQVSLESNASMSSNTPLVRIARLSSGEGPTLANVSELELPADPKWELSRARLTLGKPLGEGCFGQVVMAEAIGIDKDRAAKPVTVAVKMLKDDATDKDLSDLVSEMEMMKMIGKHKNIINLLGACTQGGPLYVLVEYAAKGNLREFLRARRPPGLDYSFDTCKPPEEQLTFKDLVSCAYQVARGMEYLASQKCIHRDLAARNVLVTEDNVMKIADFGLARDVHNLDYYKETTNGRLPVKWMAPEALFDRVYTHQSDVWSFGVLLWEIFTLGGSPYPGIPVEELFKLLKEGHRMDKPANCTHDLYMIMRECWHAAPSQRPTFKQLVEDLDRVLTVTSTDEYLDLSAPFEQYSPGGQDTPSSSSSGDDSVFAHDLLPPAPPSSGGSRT

For `COc1ccc2c3ccnc(C(F)(F)F)c3n(CCCCN)c2c1`, the inhibition [1] was 5%, the inhibition [2] was 16% and the inhibition [3] was 0%. For the same compound, the inhibition [4] was 21%, the inhibition [5] was 76% and the inhibition [6] was 74%. It also gave an inhibition [7] of 0%, an inhibition [8] of 46% and an inhibition [9] of 3%. For the same compound, the inhibition [10] was 20%, the inhibition [11] was 1% and the inhibition [12] was 0%. It also gave an inhibition [13] of 1%, an inhibition [14] of 28% and an inhibition [15] of 5%. It also gave an inhibition [16] of 12%, an inhibition [17] of 10% and an inhibition [18] of 15%. For the same compound, the inhibition [19] was 13%, the inhibition [20] was 0% and the inhibition [21] was 0%. For the same compound, the inhibition [22] was 86%, the inhibition [23] was 0% and the inhibition [24] was 20%. The inhibition [25] was 27%, the inhibition [26] was 7% and the inhibition [27] was 27%. It also gave an inhibition [28] of 4%, an inhibition [29] of 9% and an inhibition [30] of 26%. The inhibition [31] was 44%, the inhibition [32] was 25% and the inhibition [33] was 0%. It also gave an inhibition [34] of 3%, an inhibition [35] of 25% and an inhibition [36] of 8%. It also gave an inhibition [37] of 13%, an inhibition [38] of 48% and an inhibition [39] of 0%. The inhibition [40] was 0%, the inhibition [41] was 0% and the inhibition [42] was 49%. For the same compound, the inhibition [43] was 7%, the inhibition [44] was 17% and the inhibition [45] was 31%. For the same compound, the inhibition [46] was 7%.
